These compounds were tested against T1, human calcium receptor (Homo sapiens, UniProt P41180) (assay: Calcium Receptor Inhibitor Assay (block of intracellular Ca2+ increase elicited by extracellular Ca2+, fluo-3)). Conditions: HEK 293 4.0-7 cells stably expressing the human calcium receptor; at the concentrations used.
T1 construct: expressed in transfected cells; host or cells: HEK 293 4.0-7
T1 sequence (P41180 20-1078): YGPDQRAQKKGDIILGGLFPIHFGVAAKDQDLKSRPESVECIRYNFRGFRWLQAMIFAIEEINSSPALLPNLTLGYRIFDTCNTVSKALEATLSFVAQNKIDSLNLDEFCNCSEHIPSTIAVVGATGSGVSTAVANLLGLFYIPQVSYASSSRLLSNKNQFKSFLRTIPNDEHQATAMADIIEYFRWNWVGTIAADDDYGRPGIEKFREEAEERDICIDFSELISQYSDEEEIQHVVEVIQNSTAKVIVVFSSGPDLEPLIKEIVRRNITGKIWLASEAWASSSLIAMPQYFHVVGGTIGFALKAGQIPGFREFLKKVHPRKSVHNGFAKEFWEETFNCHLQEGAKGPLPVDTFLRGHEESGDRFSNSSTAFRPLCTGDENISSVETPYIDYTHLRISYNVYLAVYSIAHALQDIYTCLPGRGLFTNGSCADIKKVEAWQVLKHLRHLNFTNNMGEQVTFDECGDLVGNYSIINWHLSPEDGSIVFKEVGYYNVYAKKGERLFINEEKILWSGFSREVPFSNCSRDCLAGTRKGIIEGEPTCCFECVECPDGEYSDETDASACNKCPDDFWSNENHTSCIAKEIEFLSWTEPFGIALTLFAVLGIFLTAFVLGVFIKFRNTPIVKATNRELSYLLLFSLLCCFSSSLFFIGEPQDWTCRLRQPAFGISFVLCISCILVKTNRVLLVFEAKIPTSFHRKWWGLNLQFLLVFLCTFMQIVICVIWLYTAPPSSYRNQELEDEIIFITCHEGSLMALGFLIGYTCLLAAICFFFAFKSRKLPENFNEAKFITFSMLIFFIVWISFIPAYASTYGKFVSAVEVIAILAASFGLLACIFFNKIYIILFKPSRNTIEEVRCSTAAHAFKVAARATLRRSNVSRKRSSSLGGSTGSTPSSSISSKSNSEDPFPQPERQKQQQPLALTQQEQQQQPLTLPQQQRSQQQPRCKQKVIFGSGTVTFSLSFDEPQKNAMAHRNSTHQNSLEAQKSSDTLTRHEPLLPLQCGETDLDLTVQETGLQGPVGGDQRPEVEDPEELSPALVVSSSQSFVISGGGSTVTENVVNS
Format: cell-based
Design: key: Compounds having an IC50 greater than 30 uM were considered to be inactive; Compounds having an IC50 greater than 30 uM were considered to be inactive
Description: (I) Calcium Receptor Inhibitor Assay
Calcilytic activity was measured by determining the IC50 of the test compound for blocking increases of intracellular Ca^2+ elicited by extracellular Ca^2+ in HEK 293 4.0-7 cells stably expressing the human calcium receptor. HEK 293 4.0-7 cells were constructed as described by Rogers et al., J. Bone Miner. Res. 10 Suppl. 1:3483, 1995 (hereby incorporated by reference herein). Intracellular Ca^2+ increases were elicited by increasing extracellular Ca^2+ from 1 to 1.75 mM. Intracellular Ca^2+ was measured using fluo-3, a fluorescent calcium indicator.
The procedure was as follows:
1. Cells were maintained in T-150 flasks in selection media (DMEM supplemented with 10% fetal bovine serum and 200 ug/mL hygromycin B), under 5% CO2:95% air at 37° C. and were grown up to 90% confluency.
2. The medium was decanted and the cell monolayer was washed twice with phosphate-buffered saline (PBS) kept at 37° C. After the second wash, 6 mL of 0.02% EDTA in PBS was added and incubated for 4 minutes at 37° C. Following the incubation, cells were dispersed by gentle agitation.
3. Cells from 2 or 3 flasks were pooled and pelleted (100×g). The cellular pellet was resuspended in 10-15 mL of SPF-PCB+ and pelleted again by centrifugation. This washing was done twice.
Sulfate- and phosphate-free parathyroid cell buffer (SPF-PCB) contains 20 mM Na-Hepes, pH 7.4, 126 mM NaCl, 5 mM KCl, and 1 mM MgCl2. SPF-PCB was made up and stored at 4° C. On the day of use, SPF-PCB was supplemented with 1 mg/mL of D-glucose and 1 mM CaCl2 and then split into two fractions. To one fraction, bovine serum albumin (BSA; fraction V, ICN) was added at 5 mg/mL (SPF-PCB+). This buffer was used for washing, loading and maintaining the cells. The BSA-free fraction was used for diluting the cells in the cuvette for measurements of fluorescence.
4. The pellet was resuspended in 10 mL of SPF-PCB+ containing 2.2 uM fluo-3 (Molecular Probes) and incubated at room temperature for 35 minutes.
5. Following the incubation period, the cells were pelleted by centrifugation. The resulting pellet was washed with SPF-PCB+. After this washing, cells were resuspended in SPF-PCB+ at a density of 1-2×10^6 cells/mL.
6. For recording fluorescent signals, 300 uL of cell suspension were diluted in 1.2 mL of SPF buffer containing 1 mM CaCl2 and 1 mg/mL of D-glucose. Measurements of fluorescence were performed at 37° C. with constant stirring using a spectrofluorimeter. Excitation and emission wavelengths were measured at 485 and 535 nm, respectively. To calibrate fluorescence signals, digitonin (5 mg/mL in ethanol) was added to obtain Fmax, and the apparent Fmin was determined by adding Tris-EGTA (2.5 M Tris-Base, 0.3 M EGTA). The concentration of intracellular calcium was calculated using the following equation:
Intracellular calcium=(F−Fmin/Fmax)×Kd; where Kd=400 nM.
7. To determine the potential calcilytic activity of test compounds, cells were incubated with test compound (or vehicle as a control) for 90 seconds before increasing the concentration of extracellular Ca^2+ from 1 to 2 mM. Calcilytic compounds were detected by their ability to block, in a concentration-dependent manner, increases in the concentration of intracellular Ca^2+ elicited by extracellular Ca^2+.
In general, those compounds having lower IC50 values in the Calcium Receptor Inhibitor Assay are more preferred compounds. […] The present examples were tested except for Examples 11, 20, 28, 44 and 107.

IC50 for blocking increases of intracellular Ca2+ elicited by extracellular Ca2+ (calcilytic activity), inactive:
CCc1c(N2CCCCC2)nc(-c2cccc(F)c2O)n(CCc2cccc(F)c2)c1=O [Example 27, 5-Ethyl-2-(3-fluoro-2-hydroxyphenyl)-3-[2-(3-fluorophenyl)ethyl]-6-(1-Piperidinyl)-4(3H)-pyrimidinone]
CCc1c(CCC2CCCCC2)nc(-c2cccc(F)c2O)n(CCc2ccccc2F)c1=O [Example 46]
COc1ccccc1-c1nc(C)c(-c2cccs2)c(=O)n1CCc1ccccc1 [Example 100, 6-Methyl-2-[2-(methyloxy)phenyl]-3-(2-phenylethyl)-5-(2-thienyl)-4(3H)-pyrimidinone]
Cc1nc(-c2ccccc2O)n(CCc2ccccc2)c(=O)c1N [Example 123, 5-Amino-2-(2-hydroxyphenyl)-6-methyl-3-(2-phenylethyl)-4(3H)-pyrimidinone]
Cc1nc(-c2ccccc2O)n(CCc2ccccc2)c(=O)c1NC(=O)C(C)C [Example 127, N-[2-(2-Hydroxyphenyl)-4-methyl-6-oxo-1-(2-phenylethyl)-1,6-dihydro-5-pyrimidinyl]-2-methylpropanamide]
Cc1nc(-c2ccccc2O)n(CCc2ccccc2)c(=O)c1-c1ccc(-c2nnn[nH]2)s1 [Example 214, 2-(2-hydroxyphenyl)-6-methyl-3-(2-phenylethyl)-5-[5-(1H-tetrazol-5-yl)-2-thienyl]-4(3H)-pyrimidinone]
Cc1nc(-c2ccccc2O)n(CCc2ccccc2)c(=O)c1-c1ccc(CN)s1 [Example 215, 5-[5-(Aminomethyl)-2-thienyl]-2-(2-hydroxyphenyl)-6-methyl-3-(2-phenylethyl)-4(3H)-pyrimidinone]
CNCc1ccc(-c2c(C)nc(-c3ccccc3O)n(CCc3ccccc3)c2=O)s1 [Example 216, 2-(2-hydroxyphenyl)-6-methyl-5-{5-[(methylamino)methyl]-2-thienyl}-3-(2-phenylethyl)-4(3H)-pyrimidinone]

From patent US20090137557A1, “Calcilytic Compounds” (priority 2005, published 2009)
